From patent US6077845A, “Acridin derivatives” (Gruenenthal GmbH, priority 1998, dated 2000)
Where a name gives a salt, the structure may show the parent alone.

biological target: T1, δ-opiate receptor (Rattus norvegicus, UniProt P33533); assay: δ-Opiate receptor binding ([3H]-2-D-Ala-deltorphin II displacement, rat brain membrane homogenate); design: species or system rat (male Wistar); conditions: 1 nmole/l [3H]-2-D-Ala-deltorphin II, 90 minutes at 37° C., pH 7.4, mean ± standard deviation of three independent tests, Ki from IC50 by Cheng-Prussoff
T1 construct: from tissue; host or cells: rat brain (male Wistar) without cerebellum and medulla oblongata, membrane homogenate
Description: δ-Opiate receptor binding investigations
Tests to determine the affinity of the compounds of formula I according to the invention for δ-opiate receptors were performed on meninx homogenates (homogenates of rat's brain, without the cerebellum and medulla oblongata, taken from male Wistar rats).
For this purpose, freshly prepared rat brains were each homogenised, while being cooled in ice, in 50 mmoles/l Tris-HCl (pH 7.4) and were centrifuged for 10 minutes at 5000 g and […]. After decantation and after rejecting the supernatant liquor, followed by renewed take-up and homogenization of the membrane sediment in 50 mmoles/l Tris-HCl (pH 7.4), the homogenate was subsequently centrifuged for 20 minutes at 20,000 g and […]. This washing step was repeated again. Thereafter, the supernatant liquor was decanted and the membrane sediment was homogenized in cold 50 mmoles/l Tris-HCl, 20% glycerol (w/v), 0.01% bacitracin (w/v) (pH 7.4) and aliquots thereof were frozen until required for testing. For the receptor binding tests, the aliquots were thawed and were diluted 1:10 with the binding test buffer. A solution of […] MgCl2 (pH 7.4), supplemented by 0.1 (w/v) bovine serum albumin, was used as the buffer in the binding tests; 1 nmole/l [^3 H]-2-D-Ala-deltorphin II was used as the radioactive ligand. The proportion of non-specific binding was determined in the presence of 10 μmoles/l naloxon.
In further batches, the compounds according to the invention were added in a series of concentrations and the displacement of the radioactive ligand from its specific binding site was determined. The batches concerned, which were each tested in triplicate, were incubated for 90 minutes at 37° C. and were subsequently harvested in order to determine the radioactive ligand which was bound to the membrane homogenate by filtration through a glass fibre filter (GF/B). The glass fiber filter discs were dried, and the radioactivity thereof was measured in a β-counter after adding a scintillator.
The affinity of the compounds according to the invention for the δ-opiate receptor was calculated as the IC50 value according to the law of mass action, by means of nonlinear regression. Ki values were calculated from the IC50 values using the Cheng-Prussoff equation. The Ki values in Table 1 are given as the mean value±standard deviation of three tests which were independent of each other.

T1 sequence (P33533 whole entry): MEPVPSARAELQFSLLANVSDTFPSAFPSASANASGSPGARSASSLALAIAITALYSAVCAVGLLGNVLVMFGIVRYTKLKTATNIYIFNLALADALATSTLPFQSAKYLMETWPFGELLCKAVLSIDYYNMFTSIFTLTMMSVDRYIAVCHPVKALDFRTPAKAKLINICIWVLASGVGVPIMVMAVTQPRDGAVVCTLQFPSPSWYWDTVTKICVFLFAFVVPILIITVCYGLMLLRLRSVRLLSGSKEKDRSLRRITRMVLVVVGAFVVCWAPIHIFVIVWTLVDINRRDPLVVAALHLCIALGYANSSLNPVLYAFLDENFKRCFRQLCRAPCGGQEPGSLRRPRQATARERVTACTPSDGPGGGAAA

SMILES	Ki [nM]
CN(C)C[C@H]1CCc2nc3ccccc3cc2[C@@H]1c1cccc(O)c1 (relative stereo) [rac-trans-[3-(2-dimethylaminomethyl-1,2,3,4-tetrahydro-acridin-1-yl)]-phenol hydrochloride]	4.17
COc1cccc([C@@H]2c3cc4ccccc4nc3CC[C@H]2CN(C)C)c1 (racemic) [rac-trans-[1-(3-methoxy-phenyl)-1,2,3,4-tetrahydro-acridin-2-yl-methyl]-dimethylamine hydrochloride]	127
COc1cccc(C2=C(CN(C)C)CCc3nc4ccccc4cc32)c1 [[1-(3-methoxy-phenyl)-3,4-dihydro-acridin-2-yl-methyl]-dimethylamine hydrochloride]	133
CN(C)CC1=C(c2cccc(O)c2)c2cc3ccccc3nc2CC1(C)C [3-(2-dimethylaminomethyl-3,3-dimethyl-3,4-dihydro-acridin-1-yl)-phenol hydrochloride]	29
CN(C)CC1=C(c2cccc(O)c2)c2cc3ccccc3nc2CC1 [[3-(2-dimethylaminomethyl-3,4-dihydro-acridin-1-yl)]-phenol hydrochloride]	3.84
